Values after ≈ are worked out from the molar mass of the structure shown.
Tests used:
[1] = background art; mass unit printed as an image character; cited from earlier work
[2] = Dynamic solubility test in water; assay type: physicochemical; conditions: thermodynamic from solid, 100 mL water, 37° C., 200 rpm, read-out: Solubility of tacrolimus (mean ± SD)
Method: The excessive specimens were loaded and appropriate aliquots were collected after 0.5, 1, 2, 4, and 8 hours, and the samples were analyzed by high performance liquid chromatography.

- solubility at 1 h ([2]; 1 hr): 0.28 ± 0.05 µg/mL (≈ 0.348 µM)
- solubility at 2 h ([2]; 2 hr): 0.68 ± 0.02 µg/mL (≈ 0.846 µM)
- solubility at 4 h ([2]; 4 hr): 0.74 ± 0.01 µg/mL (≈ 0.92 µM)
- solubility at 8 h ([2]; 8 hr): 0.96 ± 0.05 µg/mL (≈ 1.19 µM)
SMILES: C=CC[C@@H]1/C=C(\C)C[C@H](C)C[C@H](OC)[C@H]2O[C@@](O)(C(=O)C(=O)N3CCCC[C@H]3C(=O)O[C@H](/C(C)=C/[C@@H]3CC[C@@H](O)[C@H](OC)C3)[C@H](C)[C@@H](O)CC1=O)[C@H](C)C[C@@H]2OC [Control, tacrolimus]
- Solubility of tacrolimus in water [1]: 1˜2 /mL
